According to patent US20090137499A1, “BENZYLPHENYL GLUCOPYRANOSIDE DERIVATIVE” (priority 2006, published 2009):

Target: T1, human SGLT1 (Homo sapiens, UniProt P13866)
T1 construct: expressed in transfected cells
T1 sequence (P13866 1-664): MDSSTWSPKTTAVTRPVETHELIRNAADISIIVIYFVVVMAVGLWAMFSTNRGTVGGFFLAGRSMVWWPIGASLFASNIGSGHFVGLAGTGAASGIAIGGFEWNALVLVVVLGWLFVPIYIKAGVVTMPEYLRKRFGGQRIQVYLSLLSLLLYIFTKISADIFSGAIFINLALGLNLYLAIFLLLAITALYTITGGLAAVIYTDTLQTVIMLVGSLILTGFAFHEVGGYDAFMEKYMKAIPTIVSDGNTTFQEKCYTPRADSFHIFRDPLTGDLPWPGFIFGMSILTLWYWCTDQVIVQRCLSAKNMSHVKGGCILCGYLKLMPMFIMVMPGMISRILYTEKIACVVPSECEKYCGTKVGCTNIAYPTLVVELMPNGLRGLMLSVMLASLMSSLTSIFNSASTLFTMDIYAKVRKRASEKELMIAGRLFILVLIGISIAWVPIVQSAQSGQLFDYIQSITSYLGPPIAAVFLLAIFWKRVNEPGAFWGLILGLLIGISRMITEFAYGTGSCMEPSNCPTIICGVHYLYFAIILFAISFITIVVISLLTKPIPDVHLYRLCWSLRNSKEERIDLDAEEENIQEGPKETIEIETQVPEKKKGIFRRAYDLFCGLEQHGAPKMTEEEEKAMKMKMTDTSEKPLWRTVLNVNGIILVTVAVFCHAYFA
Assay: Determination of SGLT1 inhibiting activity using human SGLT1 expressing cell ([14C]-α-methyl-D-glucopyranoside uptake)
Assay type: cell-based
Settings: HEK-SGLT1 cells, 1 mM [14C]-α-methyl-D-glucopyranoside, 37° C., 30 min
Description: Determination of SGLT1 Inhibiting Activity Using Human SGLT1 Expressing Cell
1) Preparation of Vector Expressing Human SGLT1 cDNA in Animal Cell
Amplification was performed by PCR using human SGLT1 cDNA clone (Origene: Clone Number, TC119918; GenBank accession number, NM 000343) as a template. The sense oligonucleotide primer for PCR was 5′-[…]-3′ (Primer 1: SEQ ID NO: 1 in the sequence listing),
and the antisense oligonucleotide primer was 5′-[…]-3′ (Primer 2: SEQ ID NO: 2 in the sequence listing).
The PCR product was subjected to agarose electrophoresis, then a target DNA fragment was recovered from a single band corresponding to 2013 bases, digested with restriction enzymes HindIII and XhoI, and introduced into the HindIII/XhoI site of vector pCMV-Script (Stratagene) to obtain SGLT1 expressing plasmid pCMV-SGLT1. A HindIII/XhoI fragment was excised from pCMV-SGLT1 and introduced into the BamHI/XhoI site of pENTR1A (Gateway, Invitrogen) to prepare pENTR-SGLT1. Retrovirus vector pLPCX (Clontech) into which Gateway Vector Conversion System Cassette A (Invitrogen) was introduced was used as the destination plasmid to prepare SGLT1 expressing retrovirus vector pLPCX-SGLT1.
2) Establishment of Human SGLT1 Expressing Cell
The retrovirus pLPCX-SGLT1 obtained in 1) was transfected into integrin αvβ3 expressing HEK-293 cells and, the cells were treated with antibiotic G418 (brand name, Geneticin: Invitrogen) and puromycin (Clontech) to obtain HEK-SGLT1 cells stably expressing the target vector having resistance. The stably expressing cells were cultured and maintained in DMEM medium containing […] G418, […] puromycin, 3 mM KGT-1075, and 10% FBS.
3) Determination of SGLT1 Inhibiting Activity
HEK-SGLT1 cells were suspended at a density of 10^6 cells/mL in DMEM medium containing […] G418, 1 mg/ml puromycin, and 10% FBS, and 100 μL was seeded in each well of a type 1 collagen-coated 96-well culture plate (Corning). On the following day, the medium was replaced with a sugar uptake buffer (10 mM HEPES [pH 7.5], 5 mM Tris-HCl [pH 7.5], 140 mM NaCl, 2 mM KCl, 1 mM CaCl2, 1 mM MgCl2), and the cells were cultured with 1 mM [^14C]-α-methyl-D-glucopyranoside (0.1 mCi) and the test compound at 37° C. for 30 min and then washed 3 times with a washing buffer (10 mM HEPES [pH 7.5], 5 mM Tris-HCl [pH 7.5], 140 mM choline chloride, 2 mM KCl, 1 mM CaCl2, 1 mM MgCl2). 100 μL of liquid scintillation cocktail (brand name, Supermix: Perkin-Elmer) was added to each well of the 96-well plate and stirred for 10 min, and then radioactivity was determined with micro β (Perkin-Elmer), a type of liquid scintillation counter. The value as the sugar uptake activity was obtained by deducting the radioactivity in the presence of an excess amount of an SGLT1 inhibiting compound as the background from each measured value, the inhibition rate (%) was calculated from the control sugar uptake activity obtained without using a test compound and the sugar uptake activity obtained using a test compound having a predetermined the concentration, and concentrations of the test compound at which the sugar uptake activity was inhibited by 50% were assessed.

SMILES	IC50 [nM]
COc1ccc(Cc2ccc(CO)cc2O[C@@H]2O[C@H]([C@@H](C)O)[C@@H](O)[C@H](O)[C@H]2O)cc1 [Example 9, 2-(4-Methoxybenzyl)-5-hydroxymethylphenyl 7-deoxy-D-glycero-β-D-gluco-heptopyranoside]	54
COc1ccc(Cc2cc(CO)cnc2O[C@@H]2O[C@H]([C@@H](C)O)[C@@H](O)[C@H](O)[C@H]2O)cc1 [Example 38, 3-(4-Methoxybenzyl)-5-hydroxymethylpyridin-2-yl 7-deoxy-D-glycero-β-D-gluco-heptopyranoside]	207
CCc1ccc(Cc2ccc(N)cc2O[C@@H]2O[C@H](C(C)O)[C@@](C)(O)[C@H](O)[C@H]2O)cc1 (stereo partly drawn) [Example 41, 5-Amino-2-(4-ethylbenzyl)phenyl 4-C-methyl-7-deoxy-glycero-β-D-gluco-heptapyranoside]	87
COc1ccc(Cc2c(Cl)cccc2O[C@@H]2O[C@H]([C@@H](C)O)[C@@H](O)[C@H](O)[C@H]2O)cc1 [Example 42, 3-Chloro-2-(4-methoxybenzyl)phenyl 7-deoxy-D-glycero-β-D-gluco-heptopyranoside]	63
COc1ccc(Cc2c(Cl)cc(C)cc2O[C@@H]2O[C@H]([C@@H](C)O)[C@@H](O)[C@H](O)[C@H]2O)cc1 [Example 43, 3-Chloro-5-methyl-2-(4-methoxybenzyl)phenyl 7-deoxy-D-glycero-β-D-gluco-heptopyranoside]	212
COc1ccc(Cc2c(Cl)cc(CO)cc2O[C@@H]2O[C@H]([C@@H](C)O)[C@@H](O)[C@H](O)[C@H]2O)cc1 [Example 44, 3-Chloro-5-hydroxymethyl-2-(4-methoxybenzyl)phenyl 7-deoxy-D-glycero-β-D-gluco-heptopyranoside]	29
CCOc1ccc(Cc2c(Cl)cc(CO)cc2O[C@@H]2O[C@H]([C@@H](C)O)[C@@H](O)[C@H](O)[C@H]2O)cc1 [Example 45, 3-Chloro-2-(4-ethoxybenzyl)-5-hydroxymethyl-phenyl 7-deoxy-D-glycero-β-D-gluco-heptopyranoside]	118
CCOc1ccc(Cc2c(F)cc(CO)cc2O[C@@H]2O[C@H]([C@@H](C)O)[C@@H](O)[C@H](O)[C@H]2O)cc1 [Example 46, 2-(4-Ethoxybenzyl)-3-fluoro-5-hydroxymethyl-phenyl 7-deoxy-D-glycero-β-D-gluco-heptopyranoside]	56
CCc1ccc(Cc2c(F)cc(CO)cc2O[C@@H]2O[C@H]([C@@H](C)O)[C@@H](O)[C@H](O)[C@H]2O)cc1 [Example 47, 2-(4-Ethylbenzyl)-3-fluoro-5-hydroxymethyl-phenyl 7-deoxy-D-glycero-β-D-gluco-heptopyranoside]	66
COc1ccc(Cc2c(Cl)cc(CO)cc2O[C@@H]2O[C@H]([C@H](C)O)[C@@H](O)[C@H](O)[C@H]2O)cc1 [Example 57, 3-Chloro-5-hydroxymethyl-2-(4-methoxybenzyl)phenyl 7-deoxy-L-glycero-β-D-gluco-heptopyranoside]	217
C[C@@H](O)[C@H]1O[C@@H](Oc2cc(CO)ccc2Cc2ccc(OC3CC3)cc2)[C@H](O)[C@@H](O)[C@@H]1O [Example 60, 2-(4-Cyclopropyloxybenzyl)-5-hydroxymethylphenyl 7-deoxy-D-glycero-β-D-gluco-heptopyranoside]	81
C[C@@H](O)[C@H]1O[C@@H](Oc2cc(CO)ccc2Cc2ccc(C3CC3)cc2)[C@H](O)[C@@H](O)[C@@H]1O [Example 62, 2-(4-Cyclopropylbenzyl)-5-hydroxymethylphenyl 7-deoxy-D-glycero-β-D-gluco-heptopyranoside]	155
C[C@@H](O)[C@H]1O[C@@H](Oc2cc(CO)cc(F)c2Cc2ccc(OC3CC3)cc2)[C@H](O)[C@@H](O)[C@@H]1O [Example 63, 2-(4-Cyclopropoxybenzyl)-3-fluoro-5-hydroxymethyl-phenyl 7-deoxy-D-glycero-β-D-gluco-heptopyranoside]	68
CSc1ccc(Cc2ccc(CO)cc2O[C@@H]2O[C@H]([C@@H](C)O)[C@@H](O)[C@H](O)[C@H]2O)cc1 [Example 66, 5-Hydroxymethyl-2-(4-methylsulfanylbenzyl)phenyl 7-deoxy-D-glycero-β-D-gluco-heptopyranoside]	214
CCc1ccc(Cc2ccc(CCO)cc2O[C@@H]2O[C@H]([C@@H](C)O)[C@@H](O)[C@H](O)[C@H]2O)cc1 [Example 67, 2-(4-Ethylbenzyl)-5-(2-hydroxyethyl)phenyl 7-deoxy-D-glycero-β-D-gluco-heptopyranoside]	491
C[C@@H](O)[C@H]1O[C@@H](Oc2cc(CO)ccc2Cc2ccc(CCCO)cc2)[C@H](O)[C@@H](O)[C@@H]1O [Example 68, 5-Hydroxymethyl-2-[4-(3-hydroxypropyl)benzyl]phenyl 7-deoxy-D-glycero-β-D-gluco-heptopyranoside]	123
COc1ccc(Cc2c(C)cc(C)cc2O[C@@H]2O[C@H]([C@@H](C)O)[C@@H](O)[C@H](O)[C@H]2O)cc1F [Example 69, 2-(3-Fluoro-4-methoxybenzyl)-3,5-dimethylphenyl 7-deoxy-D-glycero-β-D-gluco-heptopyranoside]	231
Cc1cc(C)c(Cc2ccc(CCO)cc2)c(O[C@@H]2O[C@H]([C@@H](C)O)[C@@H](O)[C@H](O)[C@H]2O)c1 [Example 70, 2-[4-(2-Hydroxyethyl)benzyl]-3,5-dimethylphenyl 7-deoxy-D-glycero-β-D-gluco-heptopyranoside]	199
CCCOc1ccc(Cc2c(F)cc(CO)cc2O[C@@H]2O[C@H]([C@@H](C)O)[C@@H](O)[C@H](O)[C@H]2O)cc1 [Example 74, 3-Fluoro-5-hydroxymethyl-2-(4-propoxybenzyl)phenyl 7-deoxy-D-glycero-β-D-gluco-heptopyranoside]	281
CC(C)Oc1ccc(Cc2c(F)cc(CO)cc2O[C@@H]2O[C@H]([C@@H](C)O)[C@@H](O)[C@H](O)[C@H]2O)cc1 [Example 75, 3-Fluoro-5-hydroxymethyl-2-(4-isopropoxybenzyl)phenyl 7-deoxy-D-glycero-β-D-gluco-heptopyranoside]	269
COc1ccc(Cc2c(C)cc(C)cc2O[C@@H]2O[C@H]([C@@H](C)O)[C@@H](O)[C@H](O)[C@H]2O)cc1 [Example 77, 3,5-Dimethyl-2-(4-methoxybenzyl)phenyl 7-deoxy-D-glycero-β-D-gluco-heptopyranoside]	252
COc1ccc(Cc2ccc(CO)cc2O[C@@H]2O[C@H]([C@@H](C)O)[C@@H](O)[C@H](O)[C@H]2O)cc1F [Example 78, 2-(3-Fluoro-4-methoxybenzyl)-5-hydroxymethylphenyl 7-deoxy-D-glycero-β-D-gluco-heptopyranoside]	234
COc1ccc(Cc2ccc(CO)cc2O[C@@H]2O[C@H]([C@@H](C)O)[C@@H](O)[C@H](O)[C@H]2O)c(F)c1 [Example 82, 2-(2-Fluoro-4-methoxybenzyl)-5-hydroxymethylphenyl 7-deoxy-D-glycero-β-D-gluco-heptopyranoside]	219
